According to ChEMBL document CHEMBL1145663, “Studies on iridoid-related compounds, II. The structure and antimicrobial activity of aglucones of galioside and gardenoside” (1983):
Values after ≈ are worked out from the molar mass of the structure shown. Active and inactive are the calls of the source. The calls are words filed in the database; no cut-off is given here.

Columns and labels:
Staphylococcus aureus = experiment: Antimicrobial activity against Staphylococcus aureus after 20 hrs by agar dilution method; type: functional
Klebsiella pneumoniae = experiment: Antimicrobial activity against Klebsiella pneumoniae after 20 hrs by agar dilution method; type: functional

| MIC (Staphylococcus aureus) | MIC (Klebsiella pneumoniae) | Structure (SMILES) | Activity (Staphylococcus aureus) | Activity (Klebsiella pneumoniae) |
| --- | --- | --- | --- | --- |
| 125 µg/mL (≈ 516 µM) | 1000 µg/mL (≈ 4130 µM) | COC(=O)C1=CO[C@@H](O)[C@H]2[C@@H]1C=C[C@]2(O)CO |  |  |
|  |  | COC(=O)C1=CO[C@@H](O[C@@H]2O[C@H](CO)[C@@H](O)[C@H](O)[C@H]2O)[C@H]2[C@@H]1C=C[C@]2(O)CO | Active | Active |
